Reference: patent publication US11000033B2, “Ketone or oxime compound, and herbicide” (NISSAN CHEMICAL CORPORATION, priority 2014, dated 2021)

Assays:
Assay type in all cases: in vivo
[1] = tested on: Amaranthus retroflexus; assay: Test Example 5: herbicidal effect by foliage application, plastic box (symbol N); details: 320 g/ha, 3 weeks after application
Method in brief: (§1)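 Sowing in sterilized diluvial soil, 14 days' greenhouse growth at 25° C. to 30° C., then uniform small-sprayer foliar application of aqueous emulsion dilution; plants scored three weeks afterwards.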

[2] = tested on: corn; assay: Test Example 4: effect on crop by soil treatment (symbol c); details: for c: corn, effect on crop grade: application herbicide amount 320 g/ha; for c: corn, effect grade on crop: 320 g/ha
Method in brief: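 The test used sterilized diluvial soil. Seed was set down in spots and overlaid with about 1.5 cm of soil before growth in a greenhouse kept at 25° C. to 30° C.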

[3] = tested on: Digitaria ciliaris; assay: Test Example 5: herbicidal effect by foliage application, plastic box (symbol F); details: 320 g/ha, 3 weeks after application
Method in brief: as §1

[4] = tested on: Galium spurium; assay: Test Example 5: herbicidal effect by foliage application, plastic box (symbol Q); details: 320 g/ha, 3 weeks after application
Method in brief: as §1

[5] = tested on: Cyperus difformis; assay: Test Example 3: herbicidal effect by foliage application, Wagner pot (symbol E); details: application herbicide amount 320 g/ha
Method in brief: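 Foliar spray of a water-diluted emulsion at a predetermined herbicide amount, applied to 14-day-old plants. Seedlings were raised in flooded alluvial soil (0.1–0.5 cm water) at 25–30 °C in a greenhouse. Injury was rated after 3 weeks against fixed criteria.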

[6] = tested on: Abutilon theophrasti; assay: Test Example 5: herbicidal effect by foliage application, plastic box (symbol M); details: 320 g/ha, 3 weeks after application
Method in brief: as §1

[7] = tested on: Scirpus juncoides; assay: Test Example 1: herbicidal activity, application before weed generation in submerged conditions (symbol B); details: application herbicide amount 320 g/ha
Method in brief: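 Ratings (5: ≥90%, near complete withering; 4: 70–<90%; 3: 40–<70%; 2: 20–<40%; 1: 5–<20%; 0: ≤5%) were assigned 3 weeks after the diluted emulsion was applied to the water surface of freshly sown, submerged pots.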

[8] = tested on: Alopecurus myosuroides; assay: Test Example 4: herbicidal effect by soil treatment (symbol J)
Method in brief: (§2)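 Seeds were sown in sterilized diluvial soil, covered with about 1.5 cm of soil, and the soil surface was sprayed with a water-diluted emulsion of the compound at a predetermined rate. Plants grew in a greenhouse at 25° C. to 30° C.; effects were scored visually 3 weeks after application.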

[9] = tested on: Abutilon theophrasti; assay: Test Example 4: herbicidal effect by soil treatment (symbol M)
Method in brief: as §2

[10] = application herbicide amount 320 g/ha

Compound | N: Amaranthus retroflexus, herbicidal effect grade [1] | c: corn, effect on crop grade [2] | F: Digitaria ciliaris, herbicidal effect grade [3] | Q: Galium spurium, herbicidal effect grade [4] | herbicidal effect on E, grade 0-5 [5] | M: Abutilon theophrasti, herbicidal effect grade [6] | Herbicidal effect grade, B: Scirpus juncoides [7] | J: Alopecurus myosuroides, herbicidal effect grade [8, 10] | M: Abutilon theophrasti, herbicidal effect grade [9, 10] | c: corn, effect grade on crop [2] | J: Alopecurus myosuroides, herbicidal effect grade ([8]; 320 g/ha) | M: Abutilon theophrasti, herbicidal effect grade ([9]; 320 g/ha)
CCC(=O)CC1CC(O)=C(c2c(C)cc(C)cc2C)C1=O (stereo not drawn) [2-006] | 0 (Herbicidal ratio of 5% or lower (almost no effect)) | 2 (Herbicidal ratio of 20% or higher and lower than 40%) | 3 (Herbicidal ratio of 40% or higher and lower than 70%) | 0 (Herbicidal ratio of 5% or lower (almost no effect)) | 5 (Herbicidal ratio of 90% or more (almost completely withered)) | 0 (Herbicidal ratio of 5% or lower (almost no effect)) | 2 (Herbicidal ratio of 20% or higher and lower than 40%) | 5 (Herbicidal ratio of 90% or more (almost completely withered)) | 4 (Herbicidal ratio of 70% or higher and lower than 90%) | – | – | –
CCOC(=O)C(CC)(C(C)=O)C1CC(O)=C(c2c(C)cc(C)cc2C)C1=O (stereo not drawn) [2-012] | 0 (Herbicidal ratio of 5% or lower (almost no effect)) | 0 (Herbicidal ratio of 5% or lower (almost no effect)) | 0 (Herbicidal ratio of 5% or lower (almost no effect)) | 0 (Herbicidal ratio of 5% or lower (almost no effect)) | 0 (Herbicidal ratio of 5% or lower (almost no effect)) | 0 (Herbicidal ratio of 5% or lower (almost no effect)) | 0 (Herbicidal ratio of 5% or lower (almost no effect)) | 0 (Herbicidal ratio of 5% or lower (almost no effect)) | 0 (Herbicidal ratio of 5% or lower (almost no effect)) | – | – | –
CON=C(C)CC1CC(OS(=O)(=O)c2ccc(C)cc2)=C(c2c(C)cc(C)cc2C)C1=O (stereo not drawn) [1-161] | 0 (Herbicidal ratio of 5% or lower (almost no effect)) | – | 4 (Herbicidal ratio of 70% or higher and lower than 90%) | 0 (Herbicidal ratio of 5% or lower (almost no effect)) | 4 (Herbicidal ratio of 70% or higher and lower than 90%) | 0 (Herbicidal ratio of 5% or lower (almost no effect)) | 4 (Herbicidal ratio of 70% or higher and lower than 90%) | – | – | 0 (Herbicidal ratio of 5% or lower (almost no effect)) | 3 (Herbicidal ratio of 40% or higher and lower than 70%) | 0 (Herbicidal ratio of 5% or lower (almost no effect))
COCC(=O)CC1CC(O)=C(c2c(C)cc(C)cc2C)C1=O (stereo not drawn) [2-007] | 0 (Herbicidal ratio of 5% or lower (almost no effect)) | 0 (Herbicidal ratio of 5% or lower (almost no effect)) | 1 (Herbicidal ratio of 5% or higher and lower than 20%) | 0 (Herbicidal ratio of 5% or lower (almost no effect)) | 5 (Herbicidal ratio of 90% or more (almost completely withered)) | 0 (Herbicidal ratio of 5% or lower (almost no effect)) | 2 (Herbicidal ratio of 20% or higher and lower than 40%) | 3 (Herbicidal ratio of 40% or higher and lower than 70%) | 0 (Herbicidal ratio of 5% or lower (almost no effect)) | – | – | –
COC(=O)C(C(=O)C1CC1)C1CC(O)=C(c2c(C)cc(C)cc2C)C1=O (stereo not drawn) [2-014] | 0 (Herbicidal ratio of 5% or lower (almost no effect)) | 3 (Herbicidal ratio of 40% or higher and lower than 70%) | 3 (Herbicidal ratio of 40% or higher and lower than 70%) | 0 (Herbicidal ratio of 5% or lower (almost no effect)) | 5 (Herbicidal ratio of 90% or more (almost completely withered)) | 3 (Herbicidal ratio of 40% or higher and lower than 70%) | 3 (Herbicidal ratio of 40% or higher and lower than 70%) | 2 (Herbicidal ratio of 20% or higher and lower than 40%) | 0 (Herbicidal ratio of 5% or lower (almost no effect)) | – | – | –
CON=C(C)CC1CC(O)=C(c2c(C)cc(-n3cc(Cl)cn3)cc2C)C1=O (mixture of isomers) [6-004] | 2 (Herbicidal ratio of 20% or higher and lower than 40%) | 2 (Herbicidal ratio of 20% or higher and lower than 40%) | 5 (Herbicidal ratio of 90% or more (almost completely withered)) | 3 (Herbicidal ratio of 40% or higher and lower than 70%) | 5 (Herbicidal ratio of 90% or more (almost completely withered)) | 3 (Herbicidal ratio of 40% or higher and lower than 70%) | 5 (Herbicidal ratio of 90% or more (almost completely withered)) | 5 (Herbicidal ratio of 90% or more (almost completely withered)) | 0 (Herbicidal ratio of 5% or lower (almost no effect)) | – | – | –
CCCC(=O)CC1CC(O)=C(c2c(C)cc(C)cc2C)C1=O (stereo not drawn) [2-021] | 0 (Herbicidal ratio of 5% or lower (almost no effect)) | 1 (Herbicidal ratio of 5% or higher and lower than 20%) | 4 (Herbicidal ratio of 70% or higher and lower than 90%) | 0 (Herbicidal ratio of 5% or lower (almost no effect)) | 3 (Herbicidal ratio of 40% or higher and lower than 70%) | 0 (Herbicidal ratio of 5% or lower (almost no effect)) | 4 (Herbicidal ratio of 70% or higher and lower than 90%) | 5 (Herbicidal ratio of 90% or more (almost completely withered)) | 1 (Herbicidal ratio of 5% or higher and lower than 20%) | – | – | –
CON=C(C)CC1CC(O)=C(c2c(C)cc(C(C)=O)cc2C)C1=O (stereo not drawn) [6-026] | 0 (Herbicidal ratio of 5% or lower (almost no effect)) | 0 (Herbicidal ratio of 5% or lower (almost no effect)) | 5 (Herbicidal ratio of 90% or more (almost completely withered)) | 0 (Herbicidal ratio of 5% or lower (almost no effect)) | 5 (Herbicidal ratio of 90% or more (almost completely withered)) | 0 (Herbicidal ratio of 5% or lower (almost no effect)) | 0 (Herbicidal ratio of 5% or lower (almost no effect)) | 1 (Herbicidal ratio of 5% or higher and lower than 20%) | 0 (Herbicidal ratio of 5% or lower (almost no effect)) | – | – | –
CON=C(C)CC1CC(OC(=O)Cc2ccc(OC)cc2)=C(c2c(C)cc(C)cc2C)C1=O (stereo not drawn) [1-156] | 3 (Herbicidal ratio of 40% or higher and lower than 70%) | – | 5 (Herbicidal ratio of 90% or more (almost completely withered)) | 3 (Herbicidal ratio of 40% or higher and lower than 70%) | 5 (Herbicidal ratio of 90% or more (almost completely withered)) | 4 (Herbicidal ratio of 70% or higher and lower than 90%) | 5 (Herbicidal ratio of 90% or more (almost completely withered)) | – | – | 1 (Herbicidal ratio of 5% or higher and lower than 20%) | 5 (Herbicidal ratio of 90% or more (almost completely withered)) | 5 (Herbicidal ratio of 90% or more (almost completely withered))
